Data set [1] has as its system Medulloblastoma cell. The data set is described as follows: Antiproliferative activity against Ptch+/- and p53-/- mouse medulloblastoma cells after 36 hrs by Brdu incorporation assay. The format is functional, cell-based.
The nature of data set [2]: Inhibition of hedgehog signaling pathway in mouse NIH/3T3 Light2 cells by Gli-luciferase reporter gene assay. The conditions noted are these: NIH3T3. The data set is classed as cell-based.
A short description of data set [3]: Cmax in Sprague-Dawley rat at 10 mg/kg, po administered as single dose. The arrangement: dose 10 mg/kg, route oral. The note with it: in vivo. The format is ADME, organism-based.
Data set [4] concerns Medulloblastoma cell. Description: Antitumor activity against Ptch+/- and p53-/- mouse medulloblastoma cells allografted in athymic nude mouse assessed as tumor growth inhibition at 100 mg/kg, po qd administered daily via gavage for 13 days. The format is functional, organism-based.
The nature of data set [5]: Volume of distribution at steady state in Sprague-Dawley rat at 2 mg/kg, iv administered as single dose. The format is ADME, organism-based. The conditions noted are these: in vivo, read-out: Vdss.
Data set [6] relates to Medulloblastoma cell. The data set is described as follows: Antitumor activity against Ptch+/- and p53-/- mouse medulloblastoma cells allografted in athymic nude mouse assessed as tumor growth inhibition at 50 mg/kg, po bid administered daily via gavage for 13 days. The data set is classed as functional, organism-based.
A short description of data set [7]: Tmax in Sprague-Dawley rat at 10 mg/kg, po administered as single dose. The format is ADME, organism-based. The conditions noted are these: in vivo.
Data set [8] in a line: AUC (0 to infinity) in Sprague-Dawley rat at 10 mg/kg, po administered as single dose. The data set is classed as ADME, organism-based. The arrangement: dose 10 mg/kg, time infinity, route oral. The note with it: in vivo.
A short description of data set [9]: Half life in Sprague-Dawley rat at 2 mg/kg, iv administered as single dose. The data set is classed as ADME, organism-based. The conditions noted are these: in vivo.
The nature of data set [10]: Oral bioavailability in Sprague-Dawley rat at 10 mg/kg administered as single dose. The data set is classed as ADME, organism-based. The conditions noted are these: in vivo.
A short description of data set [11]: Clearance in Sprague-Dawley rat at 2 mg/kg, iv administered as single dose. The format is ADME, organism-based. The conditions noted are these: in vivo.
The nature of data set [12]: AUC (0 to infinity) in Sprague-Dawley rat at 2 mg/kg, iv administered as single dose. The data set is classed as ADME, organism-based. The arrangement: dose 2 mg/kg, time infinity, route intravenous. The conditions noted are these: in vivo.
The species entered for a further data set is Mus musculus. The data set is described as follows: Potency index, ratio of vismodegib IC50 to compound IC50 for hedgehog signaling pathway in mouse NIH/3T3 Light2 cells. The data set is classed as cell-based.

The source made the active and inactive calls. The rule behind the calls is not given here.

For `Cc1ccc(-c2nnc(N3CC[C@@H](NC(=O)c4ccc(F)cc4C(F)(F)F)C3)c3ccccc23)cc1`, the results for the IC50 (in the data set on Medulloblastoma cell [1]; in data set [2]) were 20.1 nM and 1.16 nM, respectively.

As to `Cn1nccc1-c1nnc(N2CC(NC(=O)c3ccc(F)cc3C(F)(F)F)C2)c2ccccc12`, the IC50 in data set [2] is > 1000 nM.

Compound `Cn1nccc1-c1nnc(N2CC3(CN(C(=O)c4ccc(F)cc4C(F)(F)F)C3)C2)c2ccccc12` displayed an IC50 in data set [2] of 442 nM.

As to `Cc1ccc(-c2nnc(N3CC[C@H](NC(=O)c4ccc(F)cc4C(F)(F)F)C3)c3ccccc23)cc1`, in [2], the IC50 was > 100 nM.

`O=C(N[C@@H]1CCN(c2nnc(-c3ccc(CO)cc3)c3ccccc23)C1)c1ccc(F)cc1C(F)(F)F` yielded a Cmax in data set [3] of 480 nM. The TGI result in the data set on Medulloblastoma cell [4] and with Medulloblastoma cell [6] was “Active” each time. In data set [5], the Vd is 1.47 L/kg. Besides, in data set [7], the Tmax was 15 min. Further, the AUC(0-inf) in data set [8] was found to be 0.33 µM·h; in data set [12], 0.88 µM·h. Also, the IC50 with Medulloblastoma cell [1] stood at 24.6 nM; in data set [2], 0.17 nM. For the same compound, the half-life in data set [9] was 19.2 min. Further, the bioavailability in data set [10] was determined as 7.4%. Further, in data set [11], the clearance amounted to 74.7 mL/min/kg. Besides, in the data set listed under Mus musculus, the Ratio IC50 amounted to 23.

On to `O=C(N[C@H]1CCN(c2nnc(-c3ccc(CO)cc3)c3ccccc23)C1)c1ccc(F)cc1C(F)(F)F`, for which, in data set [2], the IC50 is > 100 nM.

In the case of `O=C(NC1CCN(c2nnc(-c3ccccc3Cl)c3ccccc23)C1)c1ccc(F)cc1C(F)(F)F` (racemic), the midpoint of inhibition in data set [2], the IC50, lay at 6.51 nM.

With `Cn1nccc1Nc1nnc(N2CCC(NC(=O)c3ccc(F)cc3C(F)(F)F)C2)c2ccccc12` (racemic), the IC50 in [2] was > 100 nM.

Compound `O=C(NC1CCN(c2nnc(-c3ccccc3)c3ccccc23)C1)c1ccc(F)cc1C(F)(F)F` (racemic) showed an IC50 in [2] of 3.43 nM.

`Cc1ccc(-c2nnc(N3CCC(NC(=O)c4ccc(F)cc4C(F)(F)F)C3)c3ccccc23)cc1` (racemic) yielded a concentration for half-maximal inhibition (IC50) in data set [2] of 0.88 nM.

In turn, `N#Cc1ccc(-c2nnc(N3CCC(NC(=O)c4ccc(F)cc4C(F)(F)F)C3)c3ccccc23)cc1` (racemic) registered a half-inhibitory concentration (IC50) in data set [2] of 14 nM.

`Cn1nccc1-c1nnc(N2CCCC(NC(=O)c3ccc(F)cc3C(F)(F)F)C2)c2ccccc12` (racemic): the half-inhibitory concentration (IC50) in data set [2] is > 1000 nM.

For the compound `Cn1cc(-c2nnc(N3CCC(NC(=O)c4ccc(F)cc4C(F)(F)F)C3)c3ccccc23)cn1` (racemic), the IC50 in [2] is > 100 nM.

In turn, `Cn1nccc1-c1nnc(N2CCC(NC(=O)c3ccc(F)cc3C(F)(F)F)C2)c2ccccc12` (racemic) displayed an IC50 in [2] of 4.75 nM.

Take `O=C(NC1CCN(c2nnc(-c3ccncc3)c3ccccc23)C1)c1ccc(F)cc1C(F)(F)F` (racemic): in [2], half-maximal inhibition (IC50) required 10.7 nM. Compared with the last compound, the IC50 is about 2.3-fold higher.

Consider `Cc1ccc(-c2nnc(N3CCC(N(C)C(=O)c4ccc(F)cc4C(F)(F)F)C3)c3ccccc23)cc1` (racemic), for which the IC50 in data set [2] was 2.93 nM.

Consider `Cn1nccc1-c1nnc(NC2CCN(C(=O)c3ccc(F)cc3C(F)(F)F)C2)c2ccccc12` (racemic), for which, in data set [2], the IC50 is > 1000 nM.

Regarding `CN(C(=O)c1ccc(F)cc1C(F)(F)F)C1CCCN(c2nnc(-c3ccnn3C)c3ccccc23)C1` (racemic), in [2], the IC50 is > 1000 nM.

For the compound `O=C(NC1CCN(c2nnc(-c3ccc(Cl)cc3)c3ccccc23)C1)c1ccc(F)cc1C(F)(F)F` (racemic), the midpoint of inhibition in data set [2], the IC50, lay at 10.9 nM.

As to `O=C(NC1CCN(c2nnc(-c3ccc(CO)cc3)c3ccccc23)C1)c1ccc(F)cc1C(F)(F)F` (racemic), the IC50 in [2] is 0.95 nM.

Regarding `O=C(NC1CCN(c2nnc(NCc3ccccc3)c3ccccc23)C1)c1ccc(F)cc1C(F)(F)F` (racemic), the concentration for half-maximal inhibition (IC50) in data set [2] was > 100 nM.

In data set [2], `CN(C(=O)c1ccc(F)cc1C(F)(F)F)C1CCN(c2nnc(-c3ccc(CO)cc3)c3ccccc23)C1` (racemic) returned an IC50 of 1.36 nM.

For the compound `CC(=O)c1ccc(-c2nnc(N3CCC(NC(=O)c4ccc(F)cc4C(F)(F)F)C3)c3ccccc23)cc1` (racemic), half-maximal inhibition in data set [2] (IC50) was put at 8.6 nM.

Turning to `CN(C(=O)c1ccc(F)cc1C(F)(F)F)C1CCN(c2nnc(-c3ccnn3C)c3ccccc23)CC1` [TALADEGIB], in the data set with Medulloblastoma cell [6], the TGI result was “Active”. For the same compound, the IC50 in the data set with Medulloblastoma cell [1] stood at 43.5 nM; in data set [2] it was 6.3 nM.

As for `CS(=O)(=O)c1ccc(C(=O)Nc2ccc(Cl)c(-c3ccccn3)c2)c(Cl)c1` [VISMODEGIB], the IC50 in the data set on Medulloblastoma cell [1] is 30.4 nM; in data set [2] it was 2.3 nM.

The values are drawn from ChEMBL document CHEMBL4118081, “Design, synthesis, and biological evaluation of optimized phthalazine derivatives as hedgehog signaling pathway inhibitors” (Eur J Med Chem, 2017).
